Assay results published in patent publication US20220008425A1, “Pharmaceutical Composition for Treating B-Cell Lymphoma” (FUNDAN UNIVERSITY SHANGHAI CANER CENTER, priority 2018, published 2022).
“Also recorded” adds a separate entry of the source.

Assays:
[1] = test system: SOX2 in tumor tissues grown from LY8-RCHO-Luc cells; assay: SOX2 immunohistochemical staining of tumor tissues from the transplantation model; format: in vivo, SCID mice; conditions: tumors from LY8-RCHO-Luc cells; compared with saline control
Text: (§1) Construction of a transplantation model: we transduced LY8-RCHO cells and NU-DUL-1-RCHO cells with lentiviruses overexpressing the firefly luciferase gene to generate stable cells expressing firefly luciferase, referred to as LY8-RCHO-Luc cells and NU-DUL-1-RCHO-Luc cells, respectively. 8-week-old female SCID mice were purchased from SLAC (Shanghai laboratory animal center). The LY8-RCHO-Luc cells and NU-DUL-1-RCHO-Luc cells were resuspended in PBS prior to intraperitoneal injection of 1.5×10^7 cells per mouse. After intraperitoneal injection of the LY8-RCHO-Luc cells, mice were randomized into 6 groups (7 mice in every group) and given saline, R-CHOP, duvelisib, abemaciclib, R-CHOP+duvelisib, and R-CHOP+abemaciclib, respectively. Mice inoculated with the NU-DUL-1-RCHO-Luc cells were randomly divided into 6 groups (7 mice in every group), and were given saline, R-CHOP, duvelisib, AZD4547, R-CHOP+duvelisib, and R-CHOP+AZD4547, respectively. […] Tumor growth was monitored by bioluminescence at day 50 and day 90 after inoculation. For in vivo luminescence imaging, D-luciferin (Promega, Madison, Wis.) was intraperitoneally injected into mice (150 mg/kg). […] Luminescence images were captured with an exposure time of 30 seconds and the signal intensity of the tumor was measured by using Bruker MI software. The survival time of each mouse was recorded. […]
(§2) Tumor tissues from patients or animal models were fixed with 4% formalin, embedded in paraffin and sectioned. […] Immunoreactivity was then detected by using a GTVision III immunohistochemical detection kit (GK500705; Gene Tech Inc., Shanghai, China) according to its instructions. Quantitative scoring of immunostaining for SOX2, p-AKT, CDK6, FGFR1 and FGFR2 was performed on three independent sections under the microscope, according to the formula: score=3 (strong positive)×percentage+2 (medium positive)×percentage+1 (weak positive)×percentage+0 (negative)×percentage.

[2] = test system: SOX2 in tumor tissues grown from NU-DUL-1-RCHO-Luc cells; assay: as above; format: in vivo, SCID mice; conditions: tumors from NU-DUL-1-RCHO-Luc cells; compared with saline control
Text: as §1, §2

[3] = test system: NU-DUL-1-RCHO cells; assay: EdU cell proliferation assay; format: cell-based, human; conditions: 1 μM
Procedure: (§3) RCHO-resistant DLBCL cells were pretreated with duvelisib, abemaciclib, or AZD4547 at a concentration of 1 μM for 48 or 120 hours prior to EdU assay. For 120 hours of the study, the medium was replaced with a fresh medium containing 1 μM of inhibitor at 48 hours. EdU cell proliferation assay was performed by using a cell-light EdU Apollo643 in vitro flow cytometry kit (RiboBio Inc., Guangzhou, China) according to its instructions. Next, we assayed EdU staining positive cells on a Cytomics FC500 MPL flow cytometer (Beckman Coulter, Brea, Calif.).

[4] = test system: LY8-RCHO cells; assay: EdU cell proliferation assay; format: cell-based, human; conditions: 1 μM
Procedure: as §3

[5] = test system: NU-DUL-1-RCHO cells; assay: Aldefluor analysis (ALDH1+ cells); format: cell-based, human
Procedure: (§4) ALDH1 is a selectable marker for a variety of normal and cancer stem cells, including hematopoietic stem cells. Therefore, we assessed the number of cancer stem cells in hematopoietic malignancies by detecting ALDH1 positive cells. As previously described, we used an ALDEFLUOR™ kit (StemCell Technologies, Vancouver, BC, CA) to detect populations with high ALDH1 activity. Briefly, 1×10^6 cells were suspended in 1 mL of assay buffer containing 1 μM of BAAA, a substrate of […]. Suspended cells were then equally divided into two samples, one as a negative control and the other as a test sample. To form the negative control, […] of DEAB, a specific ALDH inhibitor, was added to one equally-divided sample. Cells were then incubated at 37° C. for 30 minutes prior to flow cytometry analysis.

[6] = test system: LY8-RCHO cells; assay: Aldefluor analysis (ALDH1+ cells); format: cell-based, human
Procedure: as §4

[7] = test system: LY8-RCHO-Luc cells; assay: Transplantation model, bioluminescence tumor growth and survival; format: in vivo; conditions: SCID mice bearing LY8-RCHO-Luc cells; for tumor growth (total photon flux): dosing per Table 1
Text: (§5) Construction of a transplantation model: we transduced LY8-RCHO cells and NU-DUL-1-RCHO cells with lentiviruses overexpressing the firefly luciferase gene to generate stable cells expressing firefly luciferase, referred to as LY8-RCHO-Luc cells and NU-DUL-1-RCHO-Luc cells, respectively. 8-week-old female SCID mice were purchased from SLAC (Shanghai laboratory animal center). The LY8-RCHO-Luc cells and NU-DUL-1-RCHO-Luc cells were resuspended in PBS prior to intraperitoneal injection of 1.5×10^7 cells per mouse. After intraperitoneal injection of the LY8-RCHO-Luc cells, mice were randomized into 6 groups (7 mice in every group) and given saline, R-CHOP, duvelisib, abemaciclib, R-CHOP+duvelisib, and R-CHOP+abemaciclib, respectively. Mice inoculated with the NU-DUL-1-RCHO-Luc cells were randomly divided into 6 groups (7 mice in every group), and were given saline, R-CHOP, duvelisib, AZD4547, R-CHOP+duvelisib, and R-CHOP+AZD4547, respectively. The drug dosing method based on one course of clinical use is shown in Table 1; the R-CHOP regimen was clinically used to treat DLBCL, while duvelisib, abemaciclib, and AZD4547 were tested in clinical trials (associated NCT numbers are NCT02576275, NCT01739309, and […], respectively). Tumor growth was monitored by bioluminescence at day 50 and day 90 after inoculation. For in vivo luminescence imaging, D-luciferin (Promega, Madison, Wis.) was intraperitoneally injected into mice (150 mg/kg). After 10 minutes, the mice were anesthetized by intraperitoneal injection of pentobarbital (50 mg/kg) and then their bioluminescence intensity was examined by using an In Vivo MS FX PRO system (Bruker Corporation, Billerica, Mass.). Luminescence images were captured with an exposure time of 30 seconds and the signal intensity of the tumor was measured by using Bruker MI software. The survival time of each mouse was recorded. Surviving mice were euthanized and dissected 120 days after inoculation and no intraperitoneal tumors were found. Tumor tissue was collected from moribund mice and fixed with 4% formalin. All animal experiments were performed in strict accordance with the experiment protocol approved by the animal ethics committee of Shanghai school of medicine of Fudan university.

[8] = test system: NU-DUL-1-RCHO-Luc cells; assay: as above; format: in vivo; conditions: SCID mice bearing NU-DUL-1-RCHO-Luc cells
Text: as §5

[9] = test system: AKT phosphorylation, SOX2, CDK6 and CSC-associated molecules in LY8-RCHO cells; assay: Immunoblot analysis; format: cell-based, human
[10] = test system: AKT phosphorylation, SOX2, FGFR1/2 and CSC-associated molecules in NU-DUL-1-RCHO cells; assay: Immunoblot analysis; format: cell-based, human
[11] = inhibitor combined with R-CHOP, experiment ended at day 120
[12] = regimen or inhibitor used alone, dosing per Table 1

`C[C@H](Nc1ncnc2[nH]cnc12)c1cc2cccc(Cl)c2c(=O)n1-c1ccccc1` [duvelisib] was tested, and the “SOX2 expression level in tumor tissue (IHC)” value [1] was “significantly reduced the expression levels of SOX2 compared with a saline control”, the “SOX2 expression level in tumor tissue (IHC)” value [2] was “significantly reduced the expression levels of SOX2 compared with a saline control” and the “cell proliferation (EdU incorporation)” value ([3]; 48 hours) was “strongly prevented proliferation of LY8-RCHO and NU-DUL-1-RCHO cells”. For the same compound, the “cell proliferation (EdU incorporation)” value ([3]; 120 hours) was “significantly promoted proliferation of cells at 120 hours”, the “cell proliferation (EdU incorporation)” value ([4]; 48 hours) was “strongly prevented proliferation of LY8-RCHO and NU-DUL-1-RCHO cells” and the “cell proliferation (EdU incorporation)” value ([4]; 120 hours) was “significantly promoted proliferation of cells at 120 hours”. For the same compound, the “proportion of ALDH1+ cells (CSCs)” value [5] was “significantly reduced ALDH1+ subpopulations in LY8-RCHO and NU-DUL-1-RCHO cells”, the “proportion of ALDH1+ cells (CSCs)” value [6] was “significantly reduced ALDH1+ subpopulations in LY8-RCHO and NU-DUL-1-RCHO cells” and the “tumor growth (total photon flux)” value ([7]; inhibitor combined with R-CHOP) was “significantly inhibited tumor growth; also recorded: completely inhibited tumor development”. For the same compound, the survival [7, 11] was “prolonged the survival rate compared with R-CHOP or an inhibitor alone; also recorded: all treated mice survived until the end of the experiment at day 120”, the “tumor growth (total photon flux)” value ([7]; regimen or inhibitor used alone, vs saline, day 50 and 90) was “neither duvelisib nor abemaciclib alone inhibited tumor growth or prolonged the survival rate; also recorded: accelerated tumor growth compared with normal saline, although this difference was not statistically significant” and the “tumor growth (total photon flux)” value ([8]; inhibitor combined with R-CHOP, dosing per Table 1) was “completely inhibit tumor growth”. The survival time [8, 11] was “prolong the survival time to the end of the experiment at day 120”, the survival time [8, 12] was “had no efficacy on tumor growth and the survival time” and the “tumor growth (total photon flux)” value [8, 12] was “had no efficacy on tumor growth and the survival time”. For the same compound, the “AKT phosphorylation and expression of SOX2 and CDK6” value [9] was “reduces the expression of SOX2 and CDK6 by inhibiting AKT phosphorylation; also recorded: prevented phosphorylation of AKT and induced degradation of SOX2, thereby reducing expression of CDK6”, the “levels of CSC-associated molecules (OCT4, NANOG, KLF4, c-MYC, CD34, CD133)” value [9] was “significantly reduced levels of CSC-associated molecules in the RCHO-resistant cells” and the “AKT phosphorylation and expression of SOX2 and FGFR1/2” value [10] was “reduces expression of SOX2 and FGFR1/2 by inhibiting AKT phosphorylation; also recorded: prevented phosphorylation of AKT and induced degradation of SOX2”. The “levels of CSC-associated molecules (OCT4, NANOG, KLF4, c-MYC, CD34, CD133)” value [10] was “significantly reduced levels of CSC-associated molecules in the RCHO-resistant cells”.
